According to patent US9827208B2, “Antioxidant dietary supplement compositions and methods for maintaining healthy skin” (priority 2004, dated 2017):

Experiments:
[1] = Digestive tolerance of ingested high quantities of antioxidants; type: in vivo; details: oral
[2] = Stability of gallic acid as additive in juice and food products; type: physicochemical; details: acidity about pH 5 or lower
[3] = system: skin conditions arising from acne and rosacea; test: Effect of oral antioxidant/lycopene compositions on skin conditions (acne, rosacea symptoms); type: in vivo, human; details: oral administration, methods of treatment of the invention
[4] = cited from earlier work

Row | SMILES | digestive system problems on ingestion of relatively high quantities [1] | effectiveness in improving skin conditions / suppressing skin ailments [3] | also measured
1 | O=C1O[C@H]([C@@H](O)CO)C(O)=C1O [ascorbic acid] | can result in digestive system problems | – | –
2 | O=C(O)c1cc(O)c(O)c(O)c1 [gallic acid, trihydroxy benzoic acid] | can result in digestive system problems | – | stability of gallic acid in un-oxidized form in juice/food product [2]: stable
3 | CC(C)=CCC/C(C)=C/C=C/C(C)=C/C=C/C(C)=C/C=C/C=C(C)/C=C/C=C(C)/C=C/C=C(\C)CCC=C(C)C [lycopene] | – | less effective | bioavailability of lycopene on heating and processing tomatoes into tomato paste ([4]; heating and processing into tomato paste): increases bioavailability; adsorption by humans of lycopene from dietary sources ([4]; humans, dietary sources): ≥ 2,5%; bioavailability of lycopene in presence of oil ([4]; presence of oil): increases bioavailability
4 | COC(=O)c1cc(O)c(O)c(O)c1 [methyl gallate] | – | not effective | –
5 | CCCOC(=O)c1cc(O)c(O)c(O)c1 [propyl gallate] | – | not effective | –
